According to US20230172984A1, “CLEARANCE OF SENESCENT CELLS BY ACTIVATION OF iNKT CELLS” (THE REGENTS OF THE UNIVERSITY OF CALIFORNIA, priority 2020, published 2023):

What was measured:
Type in all cases: in vivo, mouse
[1] = tested on: lung parenchymal iNKT cells; test: Bleomycin-induced lung injury model, flow cytometry of lung iNKT cells; settings: bleomycin-injured mice, GalCer day 10, harvest day 14; FIG. 4C
Method: MATERIALS AND METHODS. Mouse husbandry. All procedures involving mice were performed according to the IACUC standards following ethics approval by the animal committee at the University of California, San Francisco. Male C57BL6/J on chow or HFD fed mice. HFD mice were fed a high-fat diet (60% kcal from fat) from 6 weeks until 22 weeks of age. All experiments on HFD mice were performed at 22-24 weeks total age (16-18 weeks on HFD). Age-matched male C57BL6/J mice on standard rodent chow diet were used as controls. For the lung injury model, 10-week-old male C57BL/6J mice were used. The animals were divided into three groups: the control group, the injured group, and the α-GalCer treated group. The animals in the control group received vehicle only (i.p.) on day 10. The injured group animals received bleomycin (3 U/kg) via the intratracheal route at the start of the experiment (day 0). The animals in the α-GalCer treated groups received bleomycin (3 U/kg) on day 0, and i.p. injection of α-GalCer (2 μg/mouse) on day 10. […]
Flow cytometry of iNKT cells. eWAT SVF cells were stained with PBS57 (α-GalCer-analog) loaded onto CD1d-PE tetramers prepared by the NIH Tetramer Core and anti-CD3-APC. […] For lung, 1×10^6 cells from each sample were used to quantify iNKT cells. […]

[2] = tested on: Cdkn2a^Ink4a, Ccl2, Serpine1 mRNA; test: Bleomycin-induced lung injury model, qRT-PCR of senescence and SASP markers in CD45-depleted lung cells; settings: bleomycin-injured mice, GalCer day 10, harvest day 14; FIG. 4B
Method: MATERIALS AND METHODS. Mouse husbandry. All procedures involving mice were performed according to the IACUC standards following ethics approval by the animal committee at the University of California, San Francisco. Male C57BL6/J on chow or HFD fed mice. HFD mice were fed a high-fat diet (60% kcal from fat) from 6 weeks until 22 weeks of age. All experiments on HFD mice were performed at 22-24 weeks total age (16-18 weeks on HFD). Age-matched male C57BL6/J mice on standard rodent chow diet were used as controls. For the lung injury model, 10-week-old male C57BL/6J mice were used. The animals were divided into three groups: the control group, the injured group, and the α-GalCer treated group. The animals in the control group received vehicle only (i.p.) on day 10. The injured group animals received bleomycin (3 U/kg) via the intratracheal route at the start of the experiment (day 0). The animals in the α-GalCer treated groups received bleomycin (3 U/kg) on day 0, and i.p. injection of α-GalCer (2 μg/mouse) on day 10. […] RNA extraction and Quantitative reverse transcriptase PCR.RNA was extracted with RNA extraction reagent using the commercial total RNA micro-prep kit according to the product instructions. Total RNA was quantified by nanovolume photospectrometer and fluorometer. […] Quantification was performed using with the delta-delta CT method, using Cyclophilin A (Ppia) as a housekeeping gene.

iNKT cells in the eWAT = test: Flow cytometry of iNKT cells in eWAT SVF of HFD mice (CD1d tetramer); settings: 2 μg i.p., vs obese mice treated with vehicle
Method: (§1) α-GalCer activation of iNKT cells. iNKT cells were activated in vivo using α-GalCer as described in Peralbo et al., 2006. Decreased frequency and proliferative response of invariant Vα24Vβ11 natural killer T (iNKT) cells in healthy elderly. Biogerontology 7, 483-492. Briefly, HFD mice were i.p. injected with 200 μl of a 10 μg/ml α-GalCer solution (2 μg total) made up in 5.6% Sucrose, 5% Tween-20. On day 3 or 4 post-injection, mice were euthanized for various experiments, as indicated.
Flow cytometry of iNKT cells. eWAT SVF cells were stained with PBS57 (α-GalCer-analog) loaded onto CD1d-PE tetramers prepared by the NIH Tetramer Core and anti-CD3-APC. As a negative control for subtracting background staining in eWAT SVF, samples were also stained with unloaded CD1d-PE tetramer and anti-CD3-APC. Live cells were enumerated with DAPI, and flow cytometry was performed on an Attune acoustic focusing cytometer. Gates were set to identify: cells (FSC-A/SSC-A), forward scatter singlets (FSC-H/FSC-A), side-scatter singlets (SSC-H/SSC-A), live cells (DAPI^−), and the PBS57::CD1d-PE^+/CD3-APC^+ subpopulation. The percent of unloaded CD1d-PE^+/CD3-APC^+ cells were subtracted from the loaded tetramer stained populations to eliminate the percent of background stained cells. For lung, 1×10^6 cells from each sample were used to quantify iNKT cells. […]

[3] = Metabolic measurements in HFD-fed mice (fasting glucose, GTT, HOMA-IR); settings: 10 days after α-GalCer injection
Method: as §1
Metabolic measurements. Seventeen male HFD-fed C57BL6J mice were divided into the vehicle (n=8) and the α-GalCer treated group (n=9). Age-matched male C57BL6/J mice on a standard rodent chow diet were used as controls (n=8). A glucose tolerance test was performed 10 days after α-GalCer injection. Mice were fasted overnight (14 h) before being injecting 2 g/kg glucose intraperitoneally. Blood glucose was measured at 0, 15, 30, 60, and 120 min after glucose injection using a glucometer.

Structure (SMILES): CCCCCCCCCCCCCCCCCCCCCCCCCC(=O)N[C@@H](CO[C@H]1O[C@H](CO)[C@H](O)[C@H](O)[C@H]1O)[C@H](O)[C@H](O)CCCCCCCCCCCCCC [GalCer, alpha-Galactosylceramide]
- lung parenchymal iNKT cells (proportion of T cells) [1]: induced expansion of lung parenchymal iNKT cells
- mRNA levels of senescence (Cdkn2a^Ink4a) and SASP (Ccl2, Serpine1) markers in CD45^− lung cells [2]: reduced mRNA levels of these marker genes
- iNKT cell numbers in eWAT (iNKT cells in the eWAT): dramatically increase iNKT cell numbers
- glucose tolerance (GTT) ([3]; 2 g/kg glucose i.p. after 14 h fast, vs vehicle): improved glucose tolerance
- insulin sensitivity (HOMA-IR) ([3]; vs vehicle): improved insulin sensitivity
- fasting glucose ([3]; vs vehicle-treated HFD-fed mice): significantly lower fasting glucose
